Patent publication US8361779B2, “Buffer compounds” (Sachem, Inc., priority 2010, dated 2013)
Entries after “also recorded” stand apart in the source; their conditions may differ. Structures can show the parent of a compound that is named as a salt. Where two headings read alike, the source gives them in different places. One block for each compound: values may come before it.

What was measured:
[1] = Est. pKa of Table 1 compounds (approximate measurements of pKa-values); format: physicochemical; settings: for pKa: aqueous 80 mM KCl solution (pH titration with 100 mM KOH)
Protocol: This method is used when nonreactive impurities are >5% (HPLC), when reactive impurities are >1% (HPLC), when insufficient buffer is available or when noticeably poor curve fitting is seen in the above method. The experimental method is nearly the same as the above method, but the experimental volume-pH data are processed differently. Usually, only one or two titrations are carried out. The pKa is estimated to be the same as the pH of the titration curve at the half-equivalence point. The estimated pKa values can be as good at ±0.1 or as poor as ±0.5 depending on the nature and amounts of impurities.

[2] = pKa values quoted for buffers (buffer combinations table); format: physicochemical; settings: for pKa: aqueous solution, read-out: pKa of buffer in cationic/anionic buffer combinations; for pKa / pKa of buffer in cationic/anionic buffer combinations: 25° C., ionic-strength 0.10 unless otherwise specified (b6)
Text: pH is a measurement of solvated hydrogen-ion activity, which is directly related to hydrogen ion concentration: −log [H^+]. […] Activity is a defined thermodynamic term and is related to concentration. At low concentration and low ionic-strength, activity approximately equals concentration. […] Such pKa values are more applicable to practical conditions than are thermodynamic pKa values where μ≈0. […] Initially, approximately equal concentrations are chosen.

[3] = Precision measurements of pKa-values by pH titration; format: physicochemical; settings: titrated with 100 mM KOH, six titrations, 25° C., ionic-strength 0.10 unless otherwise specified (b6); for Meas. pKa: 10 mM buffer, 80 mM KCl
Protocol: High purity analytical quality reagents are used in these studies: potassium chloride, potassium hydroxide, primary standard potassium acid phthalate (KAP, Baker), 18 meg-ohm deionized doubly-distilled water (CO2-free). […] They are dried in a vacuum oven at 50° C. for 18-24 hours and stored in a glass desiccator over P2O5. The only remaining impurities are inert water/solvent and traces of residual HCl or HBr. Most buffers are stable in atmospheric air; a few are somewhat hygroscopic. During the weighing of the buffer compounds, care is taken to prevent or minimize absorption of atmospheric moisture. Solutions containing 10 mM buffer and 80 mM KCl are carefully prepared using degassed, deionized water and standardized volumetric flasks. Six independent pH titrations are carried out for each buffer compound using 100 mM carbonate-free KOH that is carefully standardized against KAP.
The titrator is controlled and data collected by LabX Titration software, version 2.5. The titration cell is thermostatically controlled at 10.00±0.05° C., 25.00±0.05° C. or 40.00±±0.05° C. Temperatures are measured using a NIST-traceable mercury thermometer. Titrations are adjusted so that the endpoint is close to 5 mL delivery point of the burette. Incremental titrations are carried out with increment volume of 100 μl and with continuous stirring; the system is allowed to settle after each incremental addition (10-30 sec) before a reading is recorded. Accurate, NIST-traceable buffers (±0.001 pH unit) with accurately known values at 2, 4, 7, 10, 12 in the temperature range 10-40° C. are used (Oakton Instruments, Vernon Hills, Ill.). The electrode is calibrated at pH=2, 4, 10 and 12. The pH=7 buffer is independently measured. If the pH=7 measurement is accurate to ±0.002 pH unit, a titration is carried out; if not, the calibration is repeated. A pH calibration is carried out before each titration experiment. […]

[4] = system: Escherichia coli, Pseudomonas fluorescens, Pichia pastoris, Saccharyomyces cerevisiae; test: Microbial growth-inhibition assays, all four organisms; format: cell-based; settings: for comparative growth behaviour between buffers: all four organisms, pH 7.0; for order of growth inhibition at higher concentrations: standard buffers
Protocol: (§1) Microbial growth inhibition assays are carried out 96-well plates with well volume of 400 μL. In the present inventors' hands, data obtained in this manner are almost equivalent to that obtained in traditional shake flasks while data collection is more accurate and convenient. Two calibrated plate readers are used so that two plates, corresponding to a single organism, could be read at the same time. Each plate contains 80 cells for one organism and four buffers each at five concentrations (25, 50, 100, 225, 500 mM) with each buffer-concentration combination (20) being replicated four-fold. Each of these cells contained 50 μL of a fresh, calibrated cell culture plus 250 μL fresh sterile cell culture. In addition, each plate contained eight identical cells with 250 μL sterile, buffer-free growth medium plus 50 μL fresh cell culture and eight cells with 300 μL sterile growth medium and no organism. Microbial growth is measured by light-scattering/absorbance measurements at 600 nm every 15-60 minutes for the prescribed period. Every 15 minutes, each plate undergoes agitation/vibration which resuspends the organisms and promotes aeration; this process is repeated just prior to each absorbance reading. For each medium, six bottles of sterile media are prepared, one for each buffer concentration (0, 30, 60, 120, 270, 600 mM) so that when each is diluted in the plate, the desired concentrations will be obtained. The media components (see below), added buffer and water are mixed, and the pH is adjusted to the proper value. Each bottle of medium is heat sterilized (121° C., 15 psig, 20 minutes), cooled and, if necessary, the pH is readjusted to the proper value in a sterile fashion with 37% HCl or 50% NaOH.
Based upon prior experience with these organisms, a series of microbial growth measurements are carried out to determine optimal growth conditions. Four different media compositions unique to each organism each at four pH values (6.0, 6.5, 7.0, 7.5) are measured at three temperatures (23° C., 30° C., 37° C.). Fortunately, combinations of near optimal growth conditions have been found so that the same pH of 7.0±0.1 could be used for all four organisms that are listed below:
Compositions of growth media are listed below for one liter of medium. pH is adjusted to 7.0±0.1 both before and after heat sterilization. Similar growth results are obtained when the added cationic buffer is added before heat-sterilization and after heat-sterilization via sterile filtration. Several useful growth media containing methanol are known for Pichia, but ME broth is equally good under the current conditions, and then evaporation of methanol is not a problem. Amounts below are given as g/L in sterilized growth medium.
(§2) The bacterial and yeast strains are grown up and counted several times in each respective growth medium obtain fresh, stable, reproducible cultures of known density as a function of time. Microbial counting is carried out in the usual fashion by using serial dilutions followed by plate counting. Each culture is diluted and plated three times, and the values are averaged. When a culture reaches the proper microbial density (cfu/mL), two 96-well plates are quickly loaded as described above, and plate reading is started using two matched plate readers.

[5] = system: Pseudomonas fluorescens ATCC 19020; test: Microbial growth-inhibition assay, P. fluorescens; format: cell-based; settings: 30° C., PM broth
Protocol: as §1, with “For each medium, six bottles of sterile media are prepared, one for each buffer concentration (0, 30, 60, 120, 270, 600 mM) so that when each is diluted in the plate, the desired concentrations will be obtained. The media components (see below), added buffer and water are mixed, and the pH is adjusted to the proper value.” left out
Based upon prior experience with these organisms, a series of microbial growth measurements are carried out to determine optimal growth conditions. Four different media compositions unique to each organism each at four pH values (6.0, 6.5, 7.0, 7.5) are measured at three temperatures (23° C., 30° C., 37° C.). […]
as §2, with “Microbial counting is carried out in the usual fashion by using serial dilutions followed by plate counting. Each culture is diluted and plated three times, and the values are averaged.” left out

[6] = Change in pKa of amine caused by proximal quaternary ammonium group; format: physicochemical
Text: The presence of a quaternary ammonium (quat) group in a molecule that also contains an amine group will reduce the pKa of the amine as measured in aqueous media and polar nonaqueous media. […] All three effects as described will generally lead to some reduction of observed pKa in the molecule of interest. […] The amount of reduction in pKa depends on (1) the number of quat groups, (2) the distance of the quat group(s) from the amine and (3) the rigidity of the molecule that holds the quat group and amine in more fixed position with regard to each other.

[7] = single value, read-out: Est. pKa
[8] = HEPES, buffer combinations table
[9] = relative to trimethylamine, water at 25° C., μ=0.1, approximate numbers

Compound: OB(O)O [Boric Acid]
pKa [2]: 9

Compound: O=S(=O)(O)CCNC1CCCCC1 [CHES (H+)]
pKa of buffer in cationic/anionic buffer combinations [2]: 9.4

Compound: C[N+](C)(C)CC(O)CC(=O)[O-] (centres unmarked) [Carnitine HCl]
pKa ([3]; aqueous solution of 10 mM buffer and 80 mM KCl, read-out: Meas. pKa): 3.83

Compound: CN(C)CC(O)C[N+](C)(C)C.[Cl-] (centres unmarked) [Compound 8]
comparative growth behaviour between buffers [4]: is better than TRIS | comparative growth of Pseudomonas [5]: DEAGA and MEAGA are clearly better than DIMEGA and DEGA | pKa quoted in comparison of buffers with similar pKa values [2]: 7.9

Compound: CCN(CC)CC(O)C[N+](C)(C)C.[Cl-] (centres unmarked) [Compound 10, N-(2-hydroxy-3-trimethylammonium-propyl)diethylamine chloride]
comparative growth behaviour between buffers [4]: TAPS (8.4) is better than DEGA | comparative growth of Pseudomonas [5]: DEAGA and MEAGA are clearly better than DIMEGA and DEGA | pKa quoted in comparison of buffers with similar pKa values [2]: 8.5

Compound: C[N+](C)(C)CC(O)CNC(CO)(CO)CO (centres unmarked) [Compound 19a]
pKa [1, 7]: ~5.8

Compound: CN(CCO)CC[N+](C)(C)CCO [Compound 20a]
pKa [1, 7]: ~5.2

Compound: CCN(CC)CC[N+](C)(CC)CC [Compound 28a]
pKa [1, 7]: ~6.7

Compound: CN(C)CCC[N+](C)(C)C.Cl.[Cl-] [Compound 29a, (3-trimethylammoniumpropyl) dimethylamine chloride hydrochloride]
Est. pKa ([1]; single value): ~8.1

Compound: CCN(CC)CCC[N+](C)(CC)CC [Compound 30a]
pKa [1, 7]: ~8.7

Compound: CCN(CC)CCCCCC[N+](C)(CC)CC [Compound 34a]
pKa [1, 7]: ~10.1

Compound: C[N+](C)(C)CC(O)CN(CCO)CCCS(=O)(=O)[O-] (centres unmarked) [Compound 51, N-(2-hydroxy-3-trimethylammoniumpropyl)-N-(2-hydroxyethyl)homotaurine inner salt]
Est. pKa ([1]; single value): ~6.4

Compound: CN(C)CCC[N+](C)(C)CCCS(=O)(=O)[O-] [Compound 57, N,N,N′,N′-tetramethyl-N-(3-sulfopropyl)-1,3-propanediamine Inner salt]
Est. pKa ([1]; single value): ~8.1

Compound: CN(C)CC(O)C[N+](C)(CCCN(C)CCS(=O)(=O)O)CCS(=O)(=O)[O-] (centres unmarked) [Compound 59]
pKa ([1]; wide-range buffer, higher pKa, read-out: Est. pKa, second of two values): ~8 | pKa ([1]; wide-range buffer, lower pKa, read-out: Est. pKa, first of two values): ~6.5

Compound: CN(C)CCC[N+](C)(C)CCCP(=O)([O-])O [Compound 60, N,N,N′,N′-tetramethyl-N-(3-phosphonopropyl)-1,3-propanediammonium di-Inner salt]
Est. pKa, second of two values ([1]; wide-range buffer, higher pKa): ~8.2 | Est. pKa, first of two values ([1]; wide-range buffer, lower pKa): ~6.8

Compound: CN(CCCS(=O)(=O)O)CC[N+](C)(C)CCCS(=O)(=O)[O-] [Compound 66, N,N′,N′-trimethyl-N,N′-bis(3-sulfopropyl)ethylenediammonium di-inner salt]
Est. pKa ([1]; single value): ~5.5

Compound: CCN(C(C)C)C1CC[N+](CC)(CC)CC1 [Compound 74a]
pKa [1, 7]: ~7.4

Compound: Br.CN(C)C(=NCCC[N+](C)(C)C)N(C)C.[Br-] [Compound 76, 2-(3-trimethylammoniumpropyl)-1,1,3,3-tetramethylguanidine bromide hydrobromide]
Est. pKa ([1]; single value): ~12.9

Compound: C[N+](C)(C)CC(O)CNCCO.Cl.[Cl-] (centres unmarked) [Compound 78a, N-(3-trimethylammonium-2-hydroxypropyl)ethanolamine chloride hydrochloride]
Est. pKa ([1]; single value): ~7.8

Compound: O=S(=O)(O)CCN1CCN(CCO)CC1 [HEPES]
pKa1 [2, 8]: 3.0 | pKa2 [2, 8]: 7.5

Compound: C[N+]12CCN(CC1)CC2 [N-Me-Diazabicyclo[2.2.2]octane^+]
Change in pKa of Me2N— [6]: ~−6.7 log K units

Compound: NC(CO)(CO)CO [TRIS]
comparative growth behaviour between buffers [4]: DIMEGA (7.9) is better than TRIS | order of growth inhibition at higher concentrations [4]: TRIS>MES>TAPS | comparative growth of Pseudomonas [5]: all 5 cationic buffers being better than TRIS

Compound: CN(C)CCC[N+](C)(C)C [n = 3 (—CH2CH2CH2—)]
Change in pKa of Me2N— [6, 9]: ~−1.7 log K units

Compound: CN(C)CC(O)C[N+](C)(C)C (centres unmarked) [n = 3 (—CH2CH(OH)CH2—)]
Change in pKa of Me2N— [6, 9]: ~−1.9 log K units

Continued, in another order:

Est. pKa, second of two values ([1]; wide-range buffer, higher pKa): ~8.0 | Est. pKa, first of two values ([1]; wide-range buffer, lower pKa): ~6.5
Compound: 1,1,5,9-tetramethyl-2-hydroxy-5,9-bis(2-sulfoethyl)-1,5,9-triazanonane di-inner salt [Compound 82]

Est. pKa ([1]; single value): ~11.1
Compound: CN1CCN(C)C1=NCC[N+](C)(C)C.Cl.[Cl-] [Compound 77, N(2-(1′,3′-dimethylimidazoline-2′-iminato)ethyl)trimethyl-ammonium chloride hydrochloride]

Est. pKa ([1]; single value): ~8.1
Compound: Br.CCOP(=O)(CCC[N+](C)(C)CCCN(C)C)OCC.[Br-] [Compound 79a, N,N,N′,N′-tetramethyl-N-(3-diethylphosphonopropyl)-1,3-propanediamine diethyl ester bromide•hydrobromide]

Est. pKa ([1]; single value): ~6.1
Compound: CN(CCC[N+](C)(CCS(=O)(=O)[O-])CC(O)C[N+](C)(C)Cc1ccccc1)CCS(=O)(=O)[O-] (centres unmarked) [Compound 81, 1-benzyl-1,1,5,9-tetramethyl-3-hydroxy-5,9-bis(2-sulfoethyl)-1,5,9-triazanonane, di-inner salt]

comparative growth behaviour between buffers [4]: about the same behavior
Compound: O=S(=O)(O)CCN1CCOCC1 [MES]

Meas. pKa [3]: 7.099
Compound: O=S(=O)(O)CCCN1CCOCC1 [MOPS]

pKa [2]: 3.3
Compound: COCC(=O)O [Methoxyacetic Acid]

Change in pKa of Me2N— [6, 9]: ~−3.6 log K units
Compound: CN1CCC[N+](C)(C)CC1 [N,N′,N′-Me3-Homopiperazinium^+]

Change in pKa of Me2N— [6, 9]: ~−5.5 log K units
Compound: CN1CC[N+](C)(C)CC1 [N,N′,N′-Me3-Piperazinium^+]

Meas. pKa [3]: 8.410 | pKa quoted in comparison of buffers with similar pKa values [2]: 8.4
Compound: O=S(=O)(O)CCCNC(CO)(CO)CO [TAPS]
comparative growth behaviour between buffers [4]: consistently the best of all eight buffers tested; also recorded: is better than DEGA | order of growth inhibition at higher concentrations [4]: TRIS>MES>TAPS

pKa of buffer in cationic/anionic buffer combinations [2]: 7.5
Compound: O=S(=O)(O)CCNC(CO)(CO)CO [TES (H+)]

hydrolytic stability [6]: Limited hydrolytic stability | Change in pKa of Me2N— [6, 9]: ~−10.5 log K units
Compound: CN(C)C[N+](C)(C)C [n = 1* (—CH2—)]

Change in pKa of Me2N— [6, 9]: ~−3.7 log K units
Compound: CN(C)CC[N+](C)(C)C [n = 2 (—CH2CH2—)]

Change in pKa of Me2N— [6, 9]: ~−1.3 log K units
Compound: CN(C)CC=CC[N+](C)(C)C [n = 4 (trans —CH2CH═CHCH2—)]

Change in pKa of Me2N— [6, 9]: ~−0.9 log K units
Compound: CN(C)CCCC[N+](C)(C)C [n = 4 (—CH2(CH2)2CH2—)]

Change in pKa of Me2N— [6, 9]: ~−1.1 log K units
Compound: CN(C)CC(O)C(O)C[N+](C)(C)C (centres unmarked) [n = 4 (—CH2CH(OH)CH(OH)CH2—)]

Change in pKa of Me2N— [6, 9]: ~−0.5 log K units
Compound: CN(C)CCCCC[N+](C)(C)C [n = 5 (—CH2(CH2)3CH2—)]

Change in pKa of Me2N— [6, 9]: ~−0.3 log K units
Compound: CN(C)CCCCCC[N+](C)(C)C [n = 6 (—CH2(CH2)4CH2—)]
